Measurements taken from patent US20250179027A1, “CYCLOALKYL OR HETEROCYCLYL SUBSTITUTED HETEROARYL COMPOUND, AND COMPOSITION AND USE THEREOF” (Shenzhen TargetRx, Inc., priority 2022, published 2025).
pIC50: −log10 of the molar value.

Columns and labels:
BTK kinase = molecular target: T1, BTK kinase (Homo sapiens, UniProt Q06187); experiment: HTRF kinase activity inhibition assay, BTK; type: biochemical; conditions: HTRF TK kit
T1 construct: purchased Invitrogen PV3587
Source text: (§1) In this assay, the HTRF TK Kit (Catalog No. 62TKOPEC) provided by Cisbio was used to detect the inhibitory activity of compounds on BTK kinase and BTK C481S kinase and the selectivity of compounds relative to EGFR, ITK and TEC kinases.
(§2) Reagents and consumables: BTK kinase (Invitrogen, Catalog No. PV3587), BTK C481S (Carna, Product No. 08-547), ITK (Carna, Product No. 08-181), EGFR (Carna, Product No. 08-115), TEC (Carna, Product No. 08-182), HTRF-TK kit (Cisbio, Product No. 62TKOPEC), MgCl2 (Sigma, Product No. M1028), MnCl2 (Sigma, Product No. M1787), DTT (Sigma, Product No. D0632), ATP (Sigma, Product No. A7699-1 g), DMSO (Sigma, Product No. D2650), 384-well plate (PE, Product No. 6008280).
(§3) The entire operation steps were carried out on ice, and the total reaction volume was 10 μL. The compound (4 μL), substrate and ATP (4 μL), kinase (2 μL) were added in sequence to a 384-well plate, and shaked for 30 seconds. After an appropriate time at room temperature, the detection reagent was added. After 1 hour at room temperature, the plate was detected with a microplate reader. The specific steps were as follows: • a) 1× kinase buffer solution required for kinase detection was calculated according to the amount of the detection compound, and prepared as needed; • b) compounds with 2.5×working concentration were prepared, the 100 times gradient concentration solution of compounds was diluted by 4 μL to the desired concentration, mixed well, and added to each well at 4 μL per well; • c) 5×working concentration of substrate and ATP were prepared, mixed in a ratio of 1:1 before adding to a 384-well plate, and added to each well at 4 μL per well; • d) 5×working concentration of kinase was prepared, and 2 μL was added to each well; • e) the plate was shaked on a microplate oscillator for 30 seconds, sealed with a sealing membrane, and reacted at room temperature for an appropriate time; • f) 4×working concentrations of streptavidin XL-665 and TK antibody-cryptate compound were prepared, mixed in a ratio of 1:1 before adding to a 384-well plate, and added to each well at 10 μL per well; • g) the plate was read after reacting at room temperature for 1 hour; • h) the wells with only substrate, ATP and 1% DMSO added but no kinase were blank control wells, and the wells with only substrate, ATP, 1% DMSO and kinase were positive control wells.
(§4) Readings: The values of 620 nm (cryptate) and 665 nm (XL665) were read with a BioTek Synerg Neo2 microplate reader, the ratio of 665/620 per well was calculated, and the data were exported. Data analysis: IC50 was calculated using GraphPad Prism 7.0 software. The following nonlinear fitting formula was used to obtain the IC50 (half inhibitory concentration) of compounds:
(§5) [formula] • X: Compound concentration log value • Y: Inhibition rate (% inhibition)
(§6) The kinase inhibition rate (% inhibition rate) was calculated as: […]

TEC = molecular target: T2, TEC (Homo sapiens, UniProt P42680); experiment: HTRF kinase activity inhibition assay, TEC; type: biochemical; conditions: HTRF TK kit
T2 construct: purchased Carna 08-182
T2 sequence (P42680 1-631): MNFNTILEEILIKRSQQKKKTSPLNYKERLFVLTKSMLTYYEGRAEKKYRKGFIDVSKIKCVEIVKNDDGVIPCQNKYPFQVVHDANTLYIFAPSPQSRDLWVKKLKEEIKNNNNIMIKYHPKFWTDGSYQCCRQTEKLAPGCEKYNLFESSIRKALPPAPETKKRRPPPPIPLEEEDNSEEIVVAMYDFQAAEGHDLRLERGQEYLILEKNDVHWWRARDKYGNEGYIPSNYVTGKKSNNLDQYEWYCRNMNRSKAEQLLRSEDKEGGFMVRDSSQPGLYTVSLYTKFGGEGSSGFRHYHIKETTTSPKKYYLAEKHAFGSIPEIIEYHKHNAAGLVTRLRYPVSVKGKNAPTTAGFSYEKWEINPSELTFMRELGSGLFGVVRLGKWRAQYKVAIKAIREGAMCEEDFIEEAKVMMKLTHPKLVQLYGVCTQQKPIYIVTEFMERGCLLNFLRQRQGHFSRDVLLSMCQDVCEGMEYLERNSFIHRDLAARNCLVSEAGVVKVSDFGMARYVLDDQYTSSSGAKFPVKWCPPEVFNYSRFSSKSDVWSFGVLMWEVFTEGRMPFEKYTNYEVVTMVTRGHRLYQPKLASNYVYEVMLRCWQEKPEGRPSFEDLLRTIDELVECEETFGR
Source text: as §1, §2, §3, §4, §5, §6

[1] = molecular target: T3, phosphorylated BTK Y223 in NIH/3T3 BTK WT cells (Homo sapiens, UniProt Q06187); experiment: Phosphor-BTK(Y223) assay, NIH/3T3 BTK WT cells; type: cell-based; conditions: phosphorylated BTK Y223, NIH/3T3 BTK WT cells; read-out: NIH/3T3 BTK-WT pBTK IC50
T3 construct: expressed in transfected cells; host or cells: NIH/3T3 (mouse fibroblasts) engineered to express BTK WT
T3 sequence (Q06187 whole entry): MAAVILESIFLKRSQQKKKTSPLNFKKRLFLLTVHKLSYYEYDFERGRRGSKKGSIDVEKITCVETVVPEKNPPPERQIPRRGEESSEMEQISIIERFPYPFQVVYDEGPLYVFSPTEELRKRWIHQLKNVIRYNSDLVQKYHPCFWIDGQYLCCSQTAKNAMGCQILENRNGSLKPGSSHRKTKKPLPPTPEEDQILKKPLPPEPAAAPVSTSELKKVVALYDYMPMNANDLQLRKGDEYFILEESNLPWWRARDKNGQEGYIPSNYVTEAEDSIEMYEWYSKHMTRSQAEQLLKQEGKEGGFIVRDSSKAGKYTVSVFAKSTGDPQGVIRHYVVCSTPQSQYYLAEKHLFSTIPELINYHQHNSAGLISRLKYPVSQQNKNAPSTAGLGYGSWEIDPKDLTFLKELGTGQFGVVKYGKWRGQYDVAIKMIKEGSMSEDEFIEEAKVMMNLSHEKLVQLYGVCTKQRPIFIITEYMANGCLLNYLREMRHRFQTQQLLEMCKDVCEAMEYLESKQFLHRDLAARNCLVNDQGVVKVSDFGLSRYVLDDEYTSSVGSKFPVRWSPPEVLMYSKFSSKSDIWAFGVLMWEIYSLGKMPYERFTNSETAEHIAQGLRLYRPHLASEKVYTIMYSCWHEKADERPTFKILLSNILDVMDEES
Method: The purpose of this assay is to simply, quickly and directly detect the endogenous level of BTK in cells. The specific assay steps are as follows: Day 1: NIH/3T3 BTK WT cells (7.5 k/well) and NIH/3T3 BTK C481S cells (10 k/well) were plated in 96-well plates, respectively, and cultured overnight at 37° C. and 5% CO2.
• 1. A 3-fold final concentration gradient dilution of the compound was prepared, and 50 μL was added to 100 μL of cell culture; 0.5% DMSO was used as a positive control for cell growth. • 2. The plate was incubated at 37° C., 5% CO2 for 0.5 h. • 3. Na3VO4 with a final concentration of 1 mM was added, and incubated at 37° C. and 5% CO2 for 2 hours. • 4. During the incubation, the following reagents were prepared: 1× added lysis buffer: 3 vol ddH2O+1 vol 4× lysis buffer+100× blocking reagent. p-BTK (Y223) cryptate-antibody and p-BTK (Y223) d2-antibody working solutions: 1 volume of each cryopreserved antibody (stored at −20° C.) was added to 19 times volumes of assay buffer (stored at 4° C.). • 5. After the incubation, the medium was removed and 50 μL of 1× added lysis buffer was added; The mixture was centrifuged at 500 rpm for 30 min at room temperature. • 6. The lysate was mixed well and 16 μL was transferred to a 384-well plate; 1× added lysis buffer was used as a blank control. • 7. 4 μL of pre-mixed working solutions of the two antibodies (cryptate Ab:d2 Ab=1:1) were added and the plate was sealed. • 8. The plate was incubated overnight at room temperature.
Biotek cytation3.0 microplate reader was used to read the plate at 665 nm and 620 nm, and the ratio of 665/620 nm per well was calculated.
IC50 was calculated using GraphPad Prism 7.0 software.
The following nonlinear fitting formula was used to obtain the phosphorylated BTK Y223 IC50 (half phosphorylation inhibitory concentration) of the compounds:
as §5
The formula for calculating cell phosphorylation inhibition rate (% inhibition rate) was: […]

ITK = molecular target: T4, ITK (Homo sapiens, UniProt Q08881); experiment: HTRF kinase activity inhibition assay, ITK; type: biochemical; conditions: HTRF TK kit
T4 construct: purchased Carna 08-181
T4 sequence (Q08881 1-620): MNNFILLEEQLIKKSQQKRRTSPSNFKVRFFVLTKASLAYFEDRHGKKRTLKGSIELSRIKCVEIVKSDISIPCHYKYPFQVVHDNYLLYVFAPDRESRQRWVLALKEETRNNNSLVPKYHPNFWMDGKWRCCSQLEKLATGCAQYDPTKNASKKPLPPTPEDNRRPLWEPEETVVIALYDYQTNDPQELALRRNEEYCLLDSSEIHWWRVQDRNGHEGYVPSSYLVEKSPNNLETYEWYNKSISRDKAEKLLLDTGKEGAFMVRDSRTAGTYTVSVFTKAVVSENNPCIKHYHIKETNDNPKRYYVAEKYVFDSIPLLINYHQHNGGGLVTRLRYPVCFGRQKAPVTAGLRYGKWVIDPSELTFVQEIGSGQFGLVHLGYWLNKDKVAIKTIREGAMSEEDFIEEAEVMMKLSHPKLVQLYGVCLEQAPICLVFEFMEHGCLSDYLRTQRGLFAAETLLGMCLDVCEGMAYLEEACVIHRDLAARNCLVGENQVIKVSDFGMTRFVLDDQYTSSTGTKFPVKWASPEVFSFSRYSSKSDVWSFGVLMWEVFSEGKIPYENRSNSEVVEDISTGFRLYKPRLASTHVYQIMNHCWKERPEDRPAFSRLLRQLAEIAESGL
Source text: as §1, §2, §3, §4, §5, §6

EGFR = molecular target: T5, EGFR (Homo sapiens, UniProt P00533); experiment: HTRF kinase activity inhibition assay, EGFR; type: biochemical; conditions: HTRF TK kit
T5 construct: purchased Carna 08-115
T5 sequence (P00533 669-1210 limits assumed): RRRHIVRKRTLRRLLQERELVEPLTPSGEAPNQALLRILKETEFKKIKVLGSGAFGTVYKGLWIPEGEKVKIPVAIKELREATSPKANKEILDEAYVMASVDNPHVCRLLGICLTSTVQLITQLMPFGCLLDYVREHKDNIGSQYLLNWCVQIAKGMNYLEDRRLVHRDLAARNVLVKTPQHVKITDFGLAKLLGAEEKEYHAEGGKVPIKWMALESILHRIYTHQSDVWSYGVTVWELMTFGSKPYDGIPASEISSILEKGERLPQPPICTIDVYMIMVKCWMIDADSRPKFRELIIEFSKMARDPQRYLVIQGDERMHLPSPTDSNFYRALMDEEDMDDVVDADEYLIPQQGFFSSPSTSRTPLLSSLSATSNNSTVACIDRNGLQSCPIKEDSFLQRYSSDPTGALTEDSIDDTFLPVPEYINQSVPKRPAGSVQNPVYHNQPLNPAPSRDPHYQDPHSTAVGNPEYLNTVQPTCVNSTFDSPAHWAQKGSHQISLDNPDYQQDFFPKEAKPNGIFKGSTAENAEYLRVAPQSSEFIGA
Source text: as §1, §2, §3, §4, §5, §6

T1 sequence (Q06187 whole entry): as the sequence (Q06187 whole entry) above

| pIC50 (BTK kinase) | pIC50 (TEC) | pIC50 [1] | pIC50 (ITK) | pIC50 (EGFR) | SMILES |
| --- | --- | --- | --- | --- | --- |
| ≥ 8.00 | 6.00 to 7.00 | ≥ 7.60 | < 5.00 | 7.00 to 7.30 | COc1ccc(F)cc1C(=O)NCc1ccc(-c2nn(C3CCC(O)C3)c3ncnc(N)c23)cc1 (single isomer, unassigned) [Example 33, N-(4-(4-amino-1-(3-hydroxycyclopentanyl)-1H-pyrazolo[3,4-d]pyrimidin-3-yl)benzyl)-5-fluoro-2-methoxybenzamide] |
| ≥ 8.00 | 6.00 to 7.00 | ≥ 7.60 | < 5.00 | 5.00 to 6.00 | COc1ccc(F)cc1C(=O)NCc1ccc(-c2nn(C3CCC(O)C3)c3ncnc(N)c23)cc1 (single isomer, unassigned) [Example 36, N-(4-(4-amino-1-(3-hydroxycyclopentanyl)-1H-pyrazolo[3,4-d]pyrimidin-3-yl)benzyl)-5-fluoro-2-methoxybenzamide] |
| ≥ 8.00 | 6.00 to 7.00 | ≥ 7.60 | < 5.00 | 7.00 to 7.30 | COc1ccc(F)cc1C(=O)NCc1ccc(-c2nn(C3CCC(O)C3)c3ncnc(N)c23)cc1 (single isomer, unassigned) [Example 34, N-(4-(4-amino-1-(3-hydroxycyclopentanyl)-1H-pyrazolo[3,4-d]pyrimidin-3-yl)benzyl)-5-fluoro-2-methoxybenzamide] |
| ≥ 8.00 | 6.00 to 7.00 | ≥ 7.60 | < 5.00 | 7.00 to 7.30 | COc1ccc(F)cc1C(=O)NCc1ccc(-c2nn(C3CCC(O)C3)c3ncnc(N)c23)cc1 (single isomer, unassigned) [Example 35, N-(4-(4-amino-1-(3-hydroxycyclopentanyl)-1H-pyrazolo[3,4-d]pyrimidin-3-yl)benzyl)-5-fluoro-2-methoxybenzamide] |
